Experimental data taken from patent publication US8883841B2, “Oncogenic ras-specific cytotoxic compound and methods of use thereof” (The Board of Regents of the University of Texas System, priority 2005, dated 2014).
Like-named read-outs stand apart in the source and are kept apart here.

How the values were obtained:
H226B cells = experiment: Cell viability, H226B lung cancer cells; format: cell-based, human; conditions: Homo sapiens
A549 cells = experiment: Cell viability, A549 lung cancer cells; format: cell-based, human; conditions: Homo sapiens, A549, read-out: IC50 (−LogM), A549, Lung (converted)
A549CK8 = experiment: Cell viability, A549CK8 lung cancer cells; format: cell-based, human; conditions: Homo sapiens, read-out: IC50 (−LogM) (converted)
Hct116 = experiment: Cell viability, Hct116 colon cancer cells; format: cell-based, human; conditions: Homo sapiens, HCT-116, read-out: IC50 (−LogM), Hct116, Colon (converted)
CT116P53 = experiment: Cell viability, CT116P53 colon cancer cells; format: cell-based, human; conditions: Homo sapiens, read-out: IC50 (−LogM) (converted)
HKE3 = experiment: Cell viability, HKE3 colon cancer cells; format: cell-based, human; conditions: Homo sapiens
H1299 cells = experiment: Cell viability, H1299 lung cancer cells; format: cell-based, human; conditions: Homo sapiens, NCI-H1299, read-out: IC50 (−LogM), h1299, Lung (converted)
AsPC-1 = experiment: Cell viability, AsPC-1 pancreatic cancer cells; format: cell-based, human; conditions: Homo sapiens, ASPC1, read-out: IC50 (−LogM), ASPC1, Pancrease (converted)
DLD1 = experiment: Cell viability, DLD1 colon cancer cells; format: cell-based, human; conditions: Homo sapiens, DLD-1, read-out: IC50 (−LogM) (converted)
Heb46 = experiment: Cell viability, Heb46 kidney cells; format: cell-based
Heb44 = experiment: Cell viability, Heb44 kidney cells; format: cell-based
Capanc-1 = experiment: Cell viability, Capanc-1 pancreatic cancer cells; format: cell-based, human; conditions: Homo sapiens, Pancreatic cancer cell, read-out: IC50 (−LogM), capanc1, Pancrease (converted)
miapac = experiment: Cell viability, miapac pancreatic cancer cells; format: cell-based, human; conditions: Homo sapiens, Pancreatic cancer cell, read-out: IC50 (−LogM) (converted)
H2122 = experiment: Cell viability, H2122 lung cancer cells; format: cell-based, human; conditions: Homo sapiens, NCI-H2122, read-out: IC50 (−LogM) (converted)
H2009 = experiment: Cell viability, H2009 lung cancer cells; format: cell-based, human; conditions: Homo sapiens, NCI-H2009, read-out: IC50 (−LogM) (converted)
H1933 = experiment: Cell viability, H1933 lung cancer cells; format: cell-based, human; conditions: Homo sapiens, read-out: IC50 (−LogM) (converted)
H1395 = experiment: Cell viability, H1395 lung cancer cells; format: cell-based, human; conditions: Homo sapiens, NCI-H1395, read-out: IC50 (−LogM) (converted)
Ovcar3 = experiment: Cell viability, Ovcar3 ovary cancer cells; format: cell-based; conditions: Homo sapiens, OVCAR-3
U251 = experiment: NCI in-vitro testing, U251 (CNS Cancer)
CCRF-CEM = experiment: NCI in-vitro testing, CCRF-CEM (Leukemia)
KM12 = experiment: NCI in-vitro testing, KM12 (Colon Cancer); conditions: KM12
SF-295 = experiment: NCI in-vitro testing, SF-295 (CNS Cancer)
SNB-19 = experiment: NCI in-vitro testing, SNB-19 (CNS Cancer)
A498 = experiment: NCI in-vitro testing, A498 (Renal Cancer)
HCC-2998 = experiment: NCI in-vitro testing, HCC-2998 (Colon Cancer)
HOP-92 = experiment: NCI in-vitro testing, HOP-92 (Non-Small Cell Lung Cancer)
NCI-H226 = experiment: NCI in-vitro testing, NCI-H226 (Non-Small Cell Lung Cancer)

O=Cc1cn(Cc2cccc(Cl)c2)c2ccccc12 [Oncrasin K027, 1-(3-chlorobenzyl)-1H-indole-3-carbaldehyde]
IC50 (H226B cells; read-out: IC50 (−LogM), H226B, Lung, first H226B line (converted)): 0.316 µM
IC50 (H226B cells; read-out: IC50 (−LogM), H226B, Lung, second H226B line (converted)): 3.98 µM
IC50 (A549 cells): 10 µM
IC50 (A549CK8): 15.8 µM
IC50 (Hct116): 3.98 µM
IC50 (CT116P53): < 31.6 µM
IC50 (HKE3; read-out: IC50 (−LogM), HKE3, Colon, first HKE3 line (converted)): 1 µM
IC50 (HKE3; read-out: IC50 (−LogM), HKE3, Colon, second HKE3 line (converted)): 1.26 µM
IC50 (H1299 cells): 15.8 µM
IC50 (AsPC-1): 15.8 µM
IC50 (DLD1): < 31.6 µM
IC50 (Heb46): 2 µM
IC50 (Heb44): 0.0631 µM
IC50 (Capanc-1): 31.6 µM
IC50 (miapac): < 31.6 µM
IC50 (H2122): 0.631 µM
IC50 (H2009): < 31.6 µM
IC50 (H1933): < 31.6 µM
IC50 (H1395): < 31.6 µM
IC50 (Ovcar3): 3.16 µM
GI50 (U251; Homo sapiens, U-251): 2.46 µM
CC50 (U251; Homo sapiens, U-251, read-out: LC50): > 100 µM
TGI (U251; U251): 2.53E−5 Molar
Percent Growth (U251; U251, Log10 Concentration −4.0 Molar): −35%
Percent Growth (U251; U251, Log10 Concentration −5.0 Molar): 25%
Percent Growth (U251; U251, Log10 Concentration −6.0 Molar): 56%
Percent Growth (U251; U251, Log10 Concentration −7.0 Molar): 84%
Percent Growth (U251; U251, Log10 Concentration −8.0 Molar): 93%
GI50 (CCRF-CEM; Homo sapiens): 1.74 µM
CC50 (CCRF-CEM; Homo sapiens, read-out: LC50): 14.8 µM
Percent Growth (CCRF-CEM; Log10 Concentration −4.0 Molar): −67%
Percent Growth (CCRF-CEM; Log10 Concentration −5.0 Molar): −47%
Percent Growth (CCRF-CEM; Log10 Concentration −6.0 Molar): 87%
Percent Growth (CCRF-CEM; Log10 Concentration −7.0 Molar): 97%
Percent Growth (CCRF-CEM; Log10 Concentration −8.0 Molar): 100%
TGI (KM12): 4.15E−5 Molar
Percent Growth (KM12; Log10 Concentration −4.0 Molar): −54%
Percent Growth (KM12; Log10 Concentration −5.0 Molar): 87%
Percent Growth (KM12; Log10 Concentration −6.0 Molar): 102%
Percent Growth (KM12; Log10 Concentration −7.0 Molar): 113%
Percent Growth (KM12; Log10 Concentration −8.0 Molar): 108%
GI50 (SF-295; Homo sapiens, SF-295): 1.43 µM
CC50 (SF-295; Homo sapiens, SF-295, read-out: LC50): > 100 µM
TGI (SF-295; SF-295): 3.52E−5 Molar
Percent Growth (SF-295; SF-295, Log10 Concentration −4.0 Molar): −15%
Percent Growth (SF-295; SF-295, Log10 Concentration −5.0 Molar): 18%
Percent Growth (SF-295; SF-295, Log10 Concentration −6.0 Molar): 56%
Percent Growth (SF-295; SF-295, Log10 Concentration −7.0 Molar): 80%
Percent Growth (SF-295; SF-295, Log10 Concentration −8.0 Molar): 104%
GI50 (SNB-19; Homo sapiens, SNB-19): 17.6 µM
CC50 (SNB-19; Homo sapiens, SNB-19, read-out: LC50): > 100 µM
TGI (SNB-19; SNB-19): 5.89E−5 Molar
Percent Growth (SNB-19; SNB-19, Log10 Concentration −4.0 Molar): −24%
Percent Growth (SNB-19; SNB-19, Log10 Concentration −5.0 Molar): 74%
Percent Growth (SNB-19; SNB-19, Log10 Concentration −6.0 Molar): 97%
Percent Growth (SNB-19; SNB-19, Log10 Concentration −7.0 Molar): 97%
Percent Growth (SNB-19; SNB-19, Log10 Concentration −8.0 Molar): 103%
TGI (A498; A498): 3.33E−8 Molar
Percent Growth (A498; A498, Log10 Concentration −4.0 Molar): −94%
Percent Growth (A498; A498, Log10 Concentration −5.0 Molar): −95%
Percent Growth (A498; A498, Log10 Concentration −6.0 Molar): −87%
Percent Growth (A498; A498, Log10 Concentration −7.0 Molar): −66%
Percent Growth (A498; A498, Log10 Concentration −8.0 Molar): 61%
GI50 (A498; Homo sapiens, A498): 0.0124 µM
CC50 (A498; Homo sapiens, A498, read-out: LC50): 0.089 µM
TGI (HCC-2998; HCC-2998): 2.04E−5 Molar
Percent Growth (HCC-2998; HCC-2998, Log10 Concentration −4.0 Molar): −97%
Percent Growth (HCC-2998; HCC-2998, Log10 Concentration −5.0 Molar): 43%
Percent Growth (HCC-2998; HCC-2998, Log10 Concentration −6.0 Molar): 62%
Percent Growth (HCC-2998; HCC-2998, Log10 Concentration −7.0 Molar): 86%
Percent Growth (HCC-2998; HCC-2998, Log10 Concentration −8.0 Molar): 85%
GI50 (HCC-2998; Homo sapiens, HCC 2998): 4.33 µM
CC50 (HCC-2998; Homo sapiens, HCC 2998, read-out: LC50): 46.2 µM
Percent Growth (HOP-92; HOP-92, Log10 Concentration −4.0 Molar): −60%
Percent Growth (HOP-92; HOP-92, Log10 Concentration −5.0 Molar): 34%
Percent Growth (HOP-92; HOP-92, Log10 Concentration −6.0 Molar): 89%
Percent Growth (HOP-92; HOP-92, Log10 Concentration −7.0 Molar): 81%
Percent Growth (HOP-92; HOP-92, Log10 Concentration −8.0 Molar): 97%
GI50 (HOP-92; Homo sapiens, HOP-92): 5.17 µM
CC50 (HOP-92; Homo sapiens, HOP-92, read-out: LC50): 77.8 µM
GI50 (NCI-H226; Homo sapiens, NCI-H226): < 0.01 µM
CC50 (NCI-H226; Homo sapiens, NCI-H226, read-out: LC50): 0.501 µM
TGI (NCI-H226; NCI-H226): 4.46E−8 Molar
Percent Growth (NCI-H226; NCI-H226, Log10 Concentration −4.0 Molar): −65%
Percent Growth (NCI-H226; NCI-H226, Log10 Concentration −5.0 Molar): −59%
Percent Growth (NCI-H226; NCI-H226, Log10 Concentration −6.0 Molar): −62%
Percent Growth (NCI-H226; NCI-H226, Log10 Concentration −7.0 Molar): −22%
Percent Growth (NCI-H226; NCI-H226, Log10 Concentration −8.0 Molar): 40%
